Test results: patent publication US20250295763A1 (priority 2024, published 2025)
Like-named read-outs stand apart in the source and are kept apart here. Peptide text beside a SMILES is read from it. * marks the point of attachment. X1 = CCCCCCCCCCCCCCCC(=O)OCC(C*)OC(=O)CCCCCCCCCCCCCCC

Columns and labels:
[1] = for Average body weight change (%) Post-dose 1 D 1 / Body weight change (%) Post-dose 1 D 1: i.m. Days 0 and 14, 0.3 mcg H3N2; for Average body weight change (%) Post-dose 1 D 2 / Average body weight change (%) Post-dose 1 D 14 / Average body weight change (%) Post-dose 2 D 15 / Average body weight change (%) Post-dose 2 D 16 / Average body weight change (%) Post-dose 2 D 21 / Body weight change (%) Post-dose 1 D 2 / Body weight change (%) Post-dose 1 D 14 / Body weight change (%) Post-dose 2 D 15 / Body weight change (%) Post-dose 2 D 16 / Body weight change (%) Post-dose 2 D 21: same groups
H3N2 = type: in vivo, C57BL/6 mice; conditions: for HI titers Fold (compare to AS01B) / HI titers Fold (compare to H3N2) / HI titer Fold (compare to H3N2 alone) / HI titer Fold (compare to R848 treated group) / HI titer Fold (compare to SynSap 14 treated group) / HI Titers Fold (compare to CpG1018) / HI Titers Fold (compare to SynSap 17): day 28
[2] = Table 3, 5/50 mcg TLR4 agonist/Synsap, alone: 5 mcg 3D-6A-PHAD, 5 mcg EcML, 10 mcg TLR4-1, 50 mcg Synsap, 5/5 mcg AS01B
[3] = Table 4, after the boost (day 28), 5 mcg TLR4 agonist / 50 mcg Synsap, 0.3 mcg H3N2
[4] = Table 7, 10 mcg R848 with 2, 10, 50 or 100 mcg Synsap 14
[5] = Table 8, after the boost (day 28), 10 mcg R848 with 2, 10, 50 or 100 mcg Synsap 14, 0.3 mcg H3N2
[6] = Table 5, 100 mcg Synsap 5, 10 mcg Pam3CSK4
[7] = Table 6, after the boost (day 28), 100 mcg Synsap 5, 10 mcg Pam3CSK4, 0.3 mcg H3N2

CC1O[C@@H](OC(=O)[C@]23CCC(C)(C)CC2C2=CCC4C5(C)CC[C@H](O[C@@H]6O[C@H](C(=O)NCCCCCCCCc7ccc(Oc8ccccc8)cc7)[C@@H](O)[C@H](O)[C@H]6O)[C@](C)(C=O)[C@@H]5CC[C@]4(C)C2(C)CC3O)C(O[C@@H]2OC(C)[C@H](O[C@@H]3OC[C@@H](O)[C@H](O)C3O)[C@H](O)C2O)[C@@H](O)[C@H]1O (some centres unmarked) [Synsap 3]
Average body weight change (%) Post-dose 1 D 1 ([1]; Table 1, 5 mcg 3D-PHAD with 5, 50, 75 or 100 mcg Synsap 3, Synsap 3 alone 50 mcg): 2.176% | Average body weight change (%) Post-dose 1 D 2 ([1]; Table 1): 2.174% | Average body weight change (%) Post-dose 1 D 14 ([1]; Table 1): 6.946% | Average body weight change (%) Post-dose 2 D 15 ([1]; Table 1): −0.739% | Average body weight change (%) Post-dose 2 D 16 ([1]; Table 1): 1.208% | Average body weight change (%) Post-dose 2 D 21 ([1]; Table 1): 2.329% | Average body weight change (%) Post-dose 1 D 1 [1, 2]: 2.176% | Average body weight change (%) Post-dose 1 D 2 ([1]; Table 3): 2.174% | Average body weight change (%) Post-dose 1 D 14 ([1]; Table 3): 6.946% | Average body weight change (%) Post-dose 2 D 15 ([1]; Table 3): −0.739% | Average body weight change (%) Post-dose 2 D 16 ([1]; Table 3): 1.208% | Average body weight change (%) Post-dose 2 D 21 ([1]; Table 3): 2.329% | HI titers GMT mean (H3N2; [3]): 192 | HI titers Fold (compare to AS01B) (H3N2; Table 4): 0.15 | HI titers Fold (compare to H3N2) (H3N2; Table 4): 1.2

CC1O[C@@H](OC2[C@H](OC(=O)[C@]34CCC(C)(C)CC3C3=CCC5C6(C)CC[C@H](O[C@@H]7O[C@H](C(=O)NCCCCCCCCc8ccc(Oc9ccc(F)cc9)cc8)[C@@H](O)[C@H](O)[C@H]7O)[C@](C)(C=O)[C@@H]6CC[C@]5(C)C3(C)CC4O)OC[C@H](O)[C@H]2O)C(O)[C@@H](O)[C@H]1O[C@@H]1OC[C@@H](O)[C@H](O)C1O (some centres unmarked) [Synsap 14]
Body weight change (%) Post-dose 1 D 1 [1, 4]: −1.769% | Body weight change (%) Post-dose 1 D 2 ([1]; Table 7): −0.704% | Body weight change (%) Post-dose 1 D 14 ([1]; Table 7): 3.586% | Body weight change (%) Post-dose 2 D 15 ([1]; Table 7): −0.277% | Body weight change (%) Post-dose 2 D 16 ([1]; Table 7): −0.654% | Body weight change (%) Post-dose 2 D 21 ([1]; Table 7): 3.064% | HI titer GMT mean (H3N2; [5]): 192 | HI titer Fold (compare to H3N2 alone) (H3N2; Table 8): 1.2 | HI titer Fold (compare to R848 treated group) (H3N2; Table 8): 1.0 | HI titer Fold (compare to SynSap 14 treated group) (H3N2; Table 8): 1.0

COc1ccc(CCCCCCCCNC(=O)[C@H]2O[C@@H](O[C@H]3CCC4(C)C5CC=C6C7CC(C)(C)CC[C@]7(C(=O)O[C@@H]7OC(C)[C@H](O)[C@H](O)C7O[C@@H]7OC(C)[C@H](O[C@@H]8OC[C@@H](O)[C@H](O)C8O)[C@H](O)C7O)C(O)CC6(C)[C@@]5(C)CC[C@H]4[C@@]3(C)C=O)[C@H](O)[C@@H](O)[C@@H]2O)cc1 (some centres unmarked) [Synsap 1]
Average body weight change (%) Post-dose 1 D 1 [1, 2]: −1.096% | Average body weight change (%) Post-dose 1 D 2 ([1]; Table 3): −1.736% | Average body weight change (%) Post-dose 1 D 14 ([1]; Table 3): 3.753% | Average body weight change (%) Post-dose 2 D 15 ([1]; Table 3): 2.417% | Average body weight change (%) Post-dose 2 D 16 ([1]; Table 3): −1.393% | Average body weight change (%) Post-dose 2 D 21 ([1]; Table 3): 6.148% | HI titers GMT mean (H3N2; [3]): 320 | HI titers Fold (compare to AS01B) (H3N2; Table 4): 0.25 | HI titers Fold (compare to H3N2) (H3N2; Table 4): 2

CCOCc1nc2c(N)nc3ccccc3c2n1CC(C)(C)O [Synsap R848, Resiquimod, reference compound]
Body weight change (%) Post-dose 1 D 1 [1, 4]: −3.012% | Body weight change (%) Post-dose 1 D 2 ([1]; Table 7): −0.416% | Body weight change (%) Post-dose 1 D 14 ([1]; Table 7): 5.224% | Body weight change (%) Post-dose 2 D 15 ([1]; Table 7): −4.078% | Body weight change (%) Post-dose 2 D 16 ([1]; Table 7): −0.804% | Body weight change (%) Post-dose 2 D 21 ([1]; Table 7): 1.856% | HI titer GMT mean (H3N2; [5]): 183.8 | HI titer Fold (compare to H3N2 alone) (H3N2; Table 8): 1.1 | HI titer Fold (compare to R848 treated group) (H3N2; Table 8): 1.0 | HI titer Fold (compare to SynSap 14 treated group) (H3N2; Table 8): 1.0

CC1O[C@@H](OC(=O)[C@]23CCC(C)(C)CC2C2=CCC4C5(C)CC[C@H](O[C@@H]6O[C@H](C(=O)NCCCCCCCCc7ccc(N8CCOCC8)cc7)[C@@H](O)[C@H](O)[C@H]6O)[C@](C)(C=O)[C@@H]5CC[C@]4(C)C2(C)CC3O)C(O[C@@H]2OC(C)[C@H](O[C@@H]3OC[C@@H](O)[C@H](O)C3O)[C@H](O)C2O)[C@@H](O)[C@H]1O (some centres unmarked) [Synsap 5]
Body weight change (%) Post-dose 1 D 1 [1, 6]: −3.166% | Body weight change (%) Post-dose 1 D 2 ([1]; Table 5): 1.523% | Body weight change (%) Post-dose 1 D 14 ([1]; Table 5): 4.909% | Body weight change (%) Post-dose 2 D 15 ([1]; Table 5): −0.174% | Body weight change (%) Post-dose 2 D 16 ([1]; Table 5): 3.144% | Body weight change (%) Post-dose 2 D 21 ([1]; Table 5): 7.000% | HI titers GMT mean (H3N2; [7]): 2048 | HI Titers Fold (compare to CpG1018) (H3N2; Table 6): 0.9 | HI Titers Fold (compare to SynSap 17) (H3N2; Table 6): 1.0 | HI titers Fold (compare to H3N2) (H3N2; Table 6): 13

CCCCCCCCCCCCCCCC(=O)OCC(CSC[C@H](N)C(=O)N[C@@H](CO)C(=O)N[C@@H](CCCCN)C(=O)N[C@@H](CCCCN)C(=O)N[C@@H](CCCCN)C(=O)N[C@@H](CCCCN)C(=O)O)OC(=O)CCCCCCCCCCCCCCC (some centres unmarked) [Pam3CSK4, reference compound] (H-C(X1)SKKKK-OH)
Body weight change (%) Post-dose 1 D 1 [1, 6]: −0.996% | Body weight change (%) Post-dose 1 D 2 ([1]; Table 5): 2.635% | Body weight change (%) Post-dose 1 D 14 ([1]; Table 5): 6.308% | Body weight change (%) Post-dose 2 D 15 ([1]; Table 5): −0.998% | Body weight change (%) Post-dose 2 D 16 ([1]; Table 5): 0.169% | Body weight change (%) Post-dose 2 D 21 ([1]; Table 5): 4.551% | HI titers GMT mean (H3N2; [7]): 2176 | HI Titers Fold (compare to CpG1018) (H3N2; Table 6): 1.0 | HI Titers Fold (compare to SynSap 17) (H3N2; Table 6): 1.1 | HI titers Fold (compare to H3N2) (H3N2; Table 6): 14

CCCCCCCCCCCCCC(=O)O[C@H](CCCCCCCCCCC)CC(=O)NC1C(OC(=O)C[C@@H](CCCCCCCCCCC)OC(=O)CCCCCCCCCCCCC)[C@H](OP(=O)(O)O)C(CO)O[C@H]1OCC1O[C@H](O)C(NC(=O)C[C@@H](CCCCCCCCCCC)OC(=O)CCCCCCCCCCCCC)C(O)[C@@H]1O.N (some centres unmarked) [Synsap 3D-6A-PHAD, reference compound]
Average body weight change (%) Post-dose 1 D 1 [1, 2]: −5.362% | Average body weight change (%) Post-dose 1 D 2 ([1]; Table 3): −2.900% | Average body weight change (%) Post-dose 1 D 14 ([1]; Table 3): 6.215% | Average body weight change (%) Post-dose 2 D 15 ([1]; Table 3): −1.147% | Average body weight change (%) Post-dose 2 D 16 ([1]; Table 3): 0.463% | Average body weight change (%) Post-dose 2 D 21 ([1]; Table 3): 2.331% | HI titers GMT mean (H3N2; [3]): 806.3 | HI titers Fold (compare to AS01B) (H3N2; Table 4): 0.6 | HI titers Fold (compare to H3N2) (H3N2; Table 4): 5.0

Poly(I:C) [reference compound]
HI titer Fold (compare to H3N2) (H3N2; mouse, in vivo): 1 | HI titer Fold (compare to SynSap 21) (H3N2; mouse, in vivo): 0.5 | HI titer Fold (compare to TLR3) (H3N2; mouse, in vivo): 0.3299 | HI titer GMT mean (H3N2; mouse, in vivo): 640
